Experimental data: paper PMC8402715 (Viruses, 2021)

Columns and labels:
[1] = tested on: FLUAV-infected RPE cells; assay: Metabolomics of polar metabolites in media of FLUAV-infected RPE cells; conditions: infected RPE cells (FLUAV moi 1), 10 μM, 24 h
[2] = tested on: host genes in mock-infected RPE cells; type: cell-based, human; conditions: 10 μM, 8 h; for expression of PTGS2: mock-infected RPE cells; for expression of PDE4D, CRISPLD2 and PTGES / expression of SLC26A4, FAM111B and CCNE2: non-infected RPE cells, compared to non-treated cells
[3] = tested on: host genes in FLUAV-infected RPE cells; type: cell-based, human; conditions: 10 μM, 8 h; for expression of PTGS2: virus-infected RPE cells (FLUAV moi 1); for FLUAV-activated host gene expression: FLUAV-infected RPE cells (moi 1)
[4] = Cell viability assay (Cell Titer Glow) in mock-infected RPE cells, cytotoxicity; conditions: human
[5] = tested on: viral RNAs of influenza A/WSN/33(H1N1) virus; type: cell-based, influenza A virus in human RPE cells

| SMILES | levels of many polar metabolites in the media [1] | expression of PTGS2 [2] | expression of PTGS2 [3] | CC50 at 48 h [4] [µM] | further results |
| --- | --- | --- | --- | --- | --- |
| CCOc1nc2cccc(C(=O)O)c2n1Cc1ccc(-c2ccccc2-c2nnn[nH]2)cc1 [candesartan, Candesartan] | elevated | – | – | – | – |
| CCCCNc1cc(C(=O)O)cc(S(N)(=O)=O)c1Oc1ccccc1 [bumetanide, Bumetanide] | elevated | – | – | – | – |
| CN[C@H]1CC[C@@H](c2ccc(Cl)c(Cl)c2)c2ccccc21 [sertraline, Sertraline] | – | increased | increased | 17.5 | – |
| C#C[C@]1(O)CC[C@H]2[C@@H]3CCC4=CCCC[C@@H]4[C@H]3C(=C)C[C@@]21CC [desogestrel, Desogestrel] | – | – | – | 34.5 | – |
| COc1ccc2nc([S@@+]([O-])Cc3ncc(C)c(OC)c3C)[nH]c2c1 [esomeprazole, Esomeprazole] | – | increased | increased | – | – |
| CC(=O)Oc1ccccc1C(=O)O [acetylsalicylic acid, Acetylsalicylic acid] | elevated | – | – | – | – |
| C[C@]12CCC(=O)C=C1[C@@H]1C[C@@H]1[C@H]1[C@@H]3[C@@H]4C[C@@H]4[C@@]4(CCC(=O)O4)[C@@]3(C)CC[C@@H]12 [drospirenone, Drospirenone] | – | increased | increased | – | – |
| CC(=O)Nc1ccc(O)cc1 [4-acetamidophenol] | elevated | – | – | – | – |
| CCC(C)(C)C(=O)O[C@H]1C[C@@H](C)C=C2C=C[C@H](C)[C@H](CC[C@@H]3C[C@@H](O)CC(=O)O3)[C@H]21 [simvastatin, Simvastatin] | – | increased | increased | 48.3 | – |
| OCc1cc(C(O)CNCCCCCCOCCCCc2ccccc2)ccc1O (stereo not shown) [salmeterol, Salmeterol] | – | – | – | 29.3 | expression of PDE4D, CRISPLD2 and PTGES [2]: increased; expression of SLC26A4, FAM111B and CCNE2 [2]: decreased; FLUAV-activated host gene expression [3]: did not affect |
| CC(C)(C)NCC(O)c1ccc(O)c(CO)c1 (stereo not shown) [salbutamol, Salbutamol] | – | – | – | – | expression of PDE4D, CRISPLD2 and PTGES [2]: increased; expression of SLC26A4, FAM111B and CCNE2 [2]: decreased; FLUAV-activated host gene expression [3]: did not affect |
| C=C1CC[C@H](O)C/C1=C/C=C1\CCC[C@]2(C)[C@@H]([C@H](C)CCCC(C)C)CC[C@@H]12 [vitamin D3, Vitamin D3 (colecalciferol)] | – | – | – | 48.8 | – |
| CN(C)C(=N)N=C(N)N [metformin, Metformin] | – | – | – | – | effect on polyadenylated viral RNAs [5]: differentially affected |
| CCOC(=O)C1=C(COCCN)NC(C)=C(C(=O)OC)C1c1ccccc1Cl (stereo not shown) [amlodipine, Amlodipine] | elevated | increased | increased | – | – |
| C#C[C@]1(O)CC[C@H]2[C@@H]3CCc4cc(O)ccc4[C@H]3CC[C@@]21C [17a-ethynylestradiol] | elevated | – | – | – | – |
| COC(=O)C1=C(C)NC(C)=C(C(=O)OC(C)(C)CN(C)CCC(c2ccccc2)c2ccccc2)C1c1cccc([N+](=O)[O-])c1 (stereo not shown) [lercanidipine, Lercanidipine] | – | increased | increased | – | – |
| C=C1CC[C@H](O)C/C1=C/C=C1\CCC[C@]2(C)[C@@H]([C@H](C)/C=C/[C@H](C)C(C)C)CC[C@@H]12 [vitamin D2, Vitamin D2] | – | – | – | 42.1 | – |
